Measured values published in ChEMBL document CHEMBL3400058, “Synthesis, anticonvulsant activity and molecular modeling study of some new hydrazinecarbothioamide, benzenesulfonohydrazide, and phenacylacetohydrazide analogues of 4(3H)-quinazolinone” (Bioorg Med Chem Lett, 2015).

Legend:
Mus musculus [1] = experiment: Anticonvulsant activity in mouse assessed as prolongation of convulsions onset time at 150 mg/kg, ip administered 20 mins prior to PTZ challenge relative to control; type: functional; conditions: route intraperitoneal
Mus musculus [2] = experiment: Anticonvulsant activity in mouse assessed as decrease in convulsion frequency at 150 mg/kg, ip administered 20 mins prior to PTZ challenge relative to control; type: functional; parameters: scale not given: the % may be the effect or the level left; conditions: route intraperitoneal
Mus musculus [3] = experiment: Anticonvulsant activity in mouse assessed as delay of death time at 150 mg/kg, ip administered 20 mins prior to PTZ challenge relative to control; type: functional; conditions: route intraperitoneal
Mus musculus [4] = experiment: Anticonvulsant activity in mouse assessed as prolongation of convulsions onset time at 150 mg/kg, ip administered 20 mins prior to picrotoxin challenge relative to control; type: functional; conditions: route intraperitoneal
Mus musculus [5] = experiment: Anticonvulsant activity in mouse assessed as decrease in convulsion frequency at 150 mg/kg, ip administered 20 mins prior to picrotoxin challenge relative to control; type: functional; parameters: scale not given: the % may be the effect or the level left; conditions: route intraperitoneal
Mus musculus [6] = experiment: Anticonvulsant activity in mouse assessed as delay of death time at 150 mg/kg, ip administered 20 mins prior to picrotoxin challenge relative to control; type: functional; conditions: route intraperitoneal
Mus musculus [7] = experiment: Anticonvulsant activity in mouse assessed as prolongation of convulsions onset time at 50 mg/kg, ip administered 20 mins prior to PTZ challenge relative to control; type: functional; conditions: route intraperitoneal
Mus musculus [8] = experiment: Anticonvulsant activity in mouse assessed as decrease in convulsion frequency at 50 mg/kg, ip administered 20 mins prior to PTZ challenge relative to control; type: functional; parameters: scale not given: the % may be the effect or the level left; conditions: route intraperitoneal
Mus musculus [9] = experiment: Anticonvulsant activity in mouse assessed as delay of death time at 50 mg/kg, ip administered 20 mins prior to PTZ challenge relative to control; type: functional; conditions: route intraperitoneal
Mus musculus [10] = organism: Mus musculus; experiment: Protective index, ratio of TD50 for mouse to ED50 for anticonvulsant activity in mouse
[11] = Therapeutic index, ratio of LD50 for mouse to ED50 for anticonvulsant activity in mouse; type: organism-based; conditions: in vivo, read-out: Ratio LD50/ED50
Mus musculus [12] = experiment: Anticonvulsant activity in mouse assessed as protection against PTZ-induced convulsions at 50 mg/kg, ip administered 20 mins prior to PTZ challenge relative to control; type: functional; conditions: route intraperitoneal
Mus musculus [13] = experiment: Anticonvulsant activity in mouse assessed as protection against PTZ-induced convulsions at 150 mg/kg, ip administered 20 mins prior to PTZ challenge relative to control; type: functional; conditions: route intraperitoneal
Mus musculus [14] = experiment: Toxicity in mouse at 150 mg/kg, […] 20 mins prior to PTZ challenge relative to control; type: organism-based; parameters: dose 150 mg/kg; conditions: in vivo

SMILES	Activity (Mus musculus [1]) [%]	Activity (Mus musculus [2]) [%]	Activity (Mus musculus [3]) [%]	other results
CCCCC(=O)NNC(=O)CSc1nc2ccc(Cl)cc2c(=O)n1-c1ccccc1	114	87	47	–
CSc1nc2ccc(Cl)cc2c(=O)n1-c1ccccc1	114	0	44	–
COc1cc2nc(SC)n(-c3ccccc3)c(=O)c2cc1OC	35	0	461	–
CSc1nc2ccc(Cl)cc2c(=O)n1Cc1ccccc1	114	61	5	Activity (Mus musculus [4]): 36%; Activity (Mus musculus [5]): 91%; Activity (Mus musculus [6]): 0%
CCOC(=O)CSc1nc2ccc(Cl)cc2c(=O)n1-c1ccccc1	0	0	–	–
CCOC(=O)CSc1nc2ccc(Cl)cc2c(=O)n1Cc1ccccc1	0	0	–	Activity (Mus musculus [4]): 5%; Activity (Mus musculus [5]): 25%; Activity (Mus musculus [6]): 17%
O=C(CSc1nc2ccc(Cl)cc2c(=O)n1-c1ccccc1)NNC(=S)NCc1ccccc1	114	0	145	–
O=C(CSc1nc2ccc(Cl)cc2c(=O)n1Cc1ccccc1)NNC(=S)Nc1ccccc1	0	0	–	–
O=C(CSc1nc2ccc(Cl)cc2c(=O)n1Cc1ccccc1)NNC(=S)NCc1ccccc1	471	61	101	Activity (Mus musculus [4]): 15%; Activity (Mus musculus [5]): 39%; Activity (Mus musculus [6]): 25%
COc1cc2nc(SCC(=O)NNC(=S)Nc3ccccc3)n(Cc3ccccc3)c(=O)c2cc1OC	150	81	5	Activity (Mus musculus [4]): 4%; Activity (Mus musculus [5]): 89%; Activity (Mus musculus [6]): 25%
COc1cc2nc(SCC(=O)NNC(=S)NCc3ccccc3)n(Cc3ccccc3)c(=O)c2cc1OC	43	38	32	Activity (Mus musculus [4]): 78%; Activity (Mus musculus [5]): 66%; Activity (Mus musculus [6]): 22%
Cc1ccc(S(=O)(=O)NNC(=O)CSc2nc3ccc(Cl)cc3c(=O)n2-c2ccccc2)cc1	43	48	40	–
Cc1ccc(S(=O)(=O)NNC(=O)CSc2nc3ccc(Cl)cc3c(=O)n2Cc2ccccc2)cc1	43	74	47	–
COc1cc2nc(SCC(=O)NNS(=O)(=O)c3ccc(C)cc3)n(Cc3ccccc3)c(=O)c2cc1OC	43	0	–	–
CC(=O)NNC(=O)CSc1nc2ccc(Cl)cc2c(=O)n1-c1ccccc1	186	48	216	–
CCC(=O)NNC(=O)CSc1nc2ccc(Cl)cc2c(=O)n1-c1ccccc1	–	–	–	Activity (Mus musculus [7]): 1471%; Activity (Mus musculus [8]): 74%; Activity (Mus musculus [9]): 636%; Ratio TD50/ED50 (Mus musculus [10]): 8.5; selectivity ratio [11]: 24.6; Activity (Mus musculus [12]): 100%
CCCC(=O)NNC(=O)CSc1nc2ccc(Cl)cc2c(=O)n1-c1ccccc1	43	82	75	–
O=C(CSc1nc2ccc(Cl)cc2c(=O)n1-c1ccccc1)NNC(=O)c1ccccc1	114	87	0	–

SMILES	Activity (Mus musculus [1]) [%]	Activity (Mus musculus [2]) [%]	Activity (Mus musculus [3]) [%]	other results
O=C(CSc1nc2ccc(Cl)cc2c(=O)n1-c1ccccc1)NNC(=O)Cc1ccccc1	–	–	–	Activity (Mus musculus [7]): 43%; Activity (Mus musculus [8]): 0%
O=C(CCc1ccccc1)NNC(=O)CSc1nc2ccc(Cl)cc2c(=O)n1-c1ccccc1	43	0	–	–
CC(=O)NNC(=O)CSc1nc2ccc(Cl)cc2c(=O)n1Cc1ccccc1	–	–	303	Activity (Mus musculus [13]): 100%; Ratio TD50/ED50 (Mus musculus [10]): 8.7; selectivity ratio [11]: 9.7; Activity (Mus musculus [4]): 63%; Activity (Mus musculus [5]): 60%; Activity (Mus musculus [6]): 50%
CCC(=O)NNC(=O)CSc1nc2ccc(Cl)cc2c(=O)n1Cc1ccccc1	43	74	0	–
CCCC(=O)NNC(=O)CSc1nc2ccc(Cl)cc2c(=O)n1Cc1ccccc1	78	61	14	Activity (Mus musculus [4]): 0%
CCCCC(=O)NNC(=O)CSc1nc2ccc(Cl)cc2c(=O)n1Cc1ccccc1	0	0	–	–
COc1cc2nc(SCC(=O)NNC(C)=O)n(Cc3ccccc3)c(=O)c2cc1OC	0	0	–	–
CCC(=O)NNC(=O)CSc1nc2cc(OC)c(OC)cc2c(=O)n1Cc1ccccc1	471	81	216	Activity (Mus musculus [13]): 100%; Ratio TD50/ED50 (Mus musculus [10]): 4.1; selectivity ratio [11]: 5.1; Activity (Mus musculus [4]): 11%; Activity (Mus musculus [5]): 79%; Activity (Mus musculus [6]): 8%
CCCC(=O)NNC(=O)CSc1nc2cc(OC)c(OC)cc2c(=O)n1Cc1ccccc1	114	0	58	–
CCCCC(=O)NNC(=O)CSc1nc2cc(OC)c(OC)cc2c(=O)n1Cc1ccccc1	0	0	–	–
O=C(CSc1nc2ccc(Cl)cc2c(=O)n1Cc1ccccc1)NNC(=O)c1ccccc1	185	23	75	–
O=C(CSc1nc2ccc(Cl)cc2c(=O)n1Cc1ccccc1)NNC(=O)Cc1ccccc1	43	61	47	–
O=C(CCc1ccccc1)NNC(=O)CSc1nc2ccc(Cl)cc2c(=O)n1Cc1ccccc1	685	74	254	Activity (Mus musculus [13]): 100%; Ratio TD50/ED50 (Mus musculus [10]): 4.6; selectivity ratio [11]: 9.8
COc1cc2nc(SCC(=O)NNC(=O)c3ccccc3)n(Cc3ccccc3)c(=O)c2cc1OC	0	0	–	–
COc1cc2nc(SCC(=O)NNC(=O)Cc3ccccc3)n(Cc3ccccc3)c(=O)c2cc1OC	186	68	58	Activity (Mus musculus [4]): 18%; Activity (Mus musculus [5]): 97%; Activity (Mus musculus [6]): 17%
COc1cc2nc(SCC(=O)NNC(=O)CCc3ccccc3)n(Cc3ccccc3)c(=O)c2cc1OC	114	81	0	–
COc1cc2nc(SC)n(Cc3ccccc3)c(=O)c2cc1OC	–	–	–	Activity (Mus musculus [14]): Toxic
CCCC(CCC)C(=O)[O-].[Na+] [VALPROATE SODIUM]	–	–	–	Activity (Mus musculus [12]): 100%
